The values that follow come from patent EP4737449A1 (Changchun Genescience Pharmaceutical Co., Ltd., priority 2023, dated 2025).

One assay concerns the target T1, p53-Y220C mutant protein (Homo sapiens, UniProt P04637, Y220C).
T1 construct: The recombinant Y220C p53 DBD protein with his-tag
In words: In vitro DNA binding activity assay (TR-FRET). Type of assay: biochemical. The following applies: concentration required to increase the binding activity of protein to DNA by 50%. A digest of the protocol: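 SC150, the compound concentration increasing p53-Y220C DNA binding by 50% relative to vehicle, came from background-corrected 665/615 nm TR-FRET ratios. His-tagged DBD and compound were preincubated 60 min at RT before biotin-DNA plus Eu-anti-His/streptavidin-d2 detection overnight in the dark.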
(TR-FRET usually uses a lanthanide donor and a delayed reading to cut background.)

Another assay concerns NUGC-3 cells. In words: NUGC-3 cell proliferation assay (CTG, 7 days). Type of assay: cell-based, human. A digest of the protocol:
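Cells (200/well) in 1640 medium with 10% serum exposed to 10-point, 3-fold DMSO dilutions (duplicates) for 7 days at 37°C. Viability read by CellTiter-Glo luminescence; % inhibition normalized to DMSO and blank, IC50 from variable-slope nonlinear fit.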

The target in assay [1] is CYP 3A4 enzyme in human liver microsomes (Homo sapiens, UniProt P08684). In words: CYP3A4 inhibition experiment in human liver microsomes. The protocol:
The inhibitory effects of the test compounds on CYP 3A4T (with testosterone as substrate) and 3A4M (with midazolam as substrate) in human liver microsomes were evaluated in vitro to assess the medication safety of the compounds.
This study used the human liver microsome system and the cytochrome P450 enzyme probe substrate recommended by FDA guidelines for in vitro drug interaction studies to investigate the inhibition of the CYP 3A4 enzyme in human liver microsomes by the test compounds.
Test group (TG): Human liver microsomes were incubated with different concentrations of test compounds, NADPH (final concentration 2.00 mM) and probe substrates of different sub-enzymes (Table 4) for 5 min.
Positive control group (PC): Human liver microsomes were incubated with inhibitors (Table 4), NADPH (final concentration 2.00 mM) and probe substrates of different sub-enzymes (Table 4) for 5 min. Table 4 Probe substrates of sub-enzymes, inhibitors and incubation systems
The system was pre-incubated at 37°C for 5 min, and then 15 µL of 8 mM NADPH solution preheated at 37°C for 5-10 min to start the reaction. After incubation of the 96-well plate at 37°C for 5 min, 180 µL of acetonitrile:methanol (ACN:MeOH=1:1) solution containing internal standard (IS) was added to terminate the reaction. […] 80 µL of the supernatant was taken, added to 120 µL of ultrapure water, shaken evenly, and then detected by LC-MS/MS.
199 µL of 0.2 mg/mL HLM and 1 µL of 1 mM positive control inhibitor (ketoconazole) working solutions were taken and mixed evenly. 30 µL of the drug-containing liver microsome solution was taken and added to a 96-well plate, then 10 µL of substrate working solution (20 µM midazolam) was added, in duplicate. The system was pre-incubated at 37°C for 5 min, and then 15 µL of 8 mM NADPH solution preheated at 37°C for 5-10 min to start the reaction. After incubation of the 96-well plate at 37°C for 5 min, 180 µL of ACN:MeOH(1:1) solution containing IS was added to terminate the reaction. […] 80 µL of the supernatant was taken, added to 120 µL of ultrapure water, shaken evenly, and then detected by LC-MS/MS.
4.2.5.1 The relative activity of CYP450 sub-enzymes at different concentrations was calculated by dividing the peak area ratio (analyte peak area/internal standard peak area) of metabolites in the presence of the test sample or positive control by the peak area ratio of metabolites in the solvent control sample in the absence of the test article or positive control, according to the following formula: [formula] [formula]
4.2.5.2 Half maximal inhibitory concentration (IC50) was obtained by fitting according to the following model formula using Prism software: Y = Bottom + (Top−Bottom)/(1+10^(∧)((LogIC50−X)×HillSlope)) [formula]
X is the test sample concentration converted to logarithm (Log µM), Y is the relative activity (% of NC), Bottom and Top represent the percentage of enzyme activity at the bottom platform and top platform of the curve, respectively, and HillSlope represents the slope; to optimize the fitting effect, the use of other (nonlinear) dose-response models for fitting is not considered as a deviation from the protocol.

The mark [2] stands for this setting: CYP 3A4M IC50, human liver microsomes, midazolam as substrate.
The mark [3] stands for this setting: CYP 3A4T IC50, human liver microsomes, testosterone as substrate.
The mark [4] stands for this setting: Homo sapiens, NUGC-3, 168 h, NUGC-3 cell proliferation, 7 days, CTG, read-out: IC50.

Like-named read-outs stand apart in the source and are kept apart here. A value given as a limit tells only on which side of the number the result lay.

Chain of CYP 3A4 enzyme in human liver microsomes (P08684 whole entry): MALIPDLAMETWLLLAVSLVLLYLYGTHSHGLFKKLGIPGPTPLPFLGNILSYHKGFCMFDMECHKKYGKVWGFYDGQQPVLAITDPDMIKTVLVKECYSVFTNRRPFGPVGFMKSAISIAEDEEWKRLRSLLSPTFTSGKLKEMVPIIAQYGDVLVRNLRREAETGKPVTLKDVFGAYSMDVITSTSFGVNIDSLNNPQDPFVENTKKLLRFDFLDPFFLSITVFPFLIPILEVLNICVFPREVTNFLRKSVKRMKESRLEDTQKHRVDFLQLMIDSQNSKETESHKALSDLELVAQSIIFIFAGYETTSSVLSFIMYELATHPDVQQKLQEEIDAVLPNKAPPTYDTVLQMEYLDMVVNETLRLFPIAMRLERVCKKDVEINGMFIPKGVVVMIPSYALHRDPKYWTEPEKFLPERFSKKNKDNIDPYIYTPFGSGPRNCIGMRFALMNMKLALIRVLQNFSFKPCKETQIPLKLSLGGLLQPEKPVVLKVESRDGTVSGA

What is called IC50 is the concentration that inhibits the measured activity by half. Regarding `CN1CC[C@@H](Nc2cccc3c(CC(F)(F)F)c(C#CCNC(=O)c4cnn(C56CC(C5)C6)c4N)nn23)[C@@H](F)C1` [Compound 289, 5-amino-1-(dicyclo[1.1.1]pent-1-yl)-N-[3-(7-{[(3S,4R)-3-fluoro-1-methylpiperidin-4-yl]amino}-3-(2,2,2-trifluoroethyl)pyrazolo[1,5-a]pyridin-2-yl)prop-2-yn-1-yl]-1H-pyrazole-4-carboxamide], at p53-Y220C mutant protein, the SC150 was determined as 5 nM. The IC50 with NUGC-3 cells (Homo sapiens, NUGC-3, 168 h) turned out to be 0.182 µM; in assay [1] (setting [2]), 12.9 µM; in assay [1] (setting [3]), 13.2 µM.
On p53-Y220C mutant protein, `COC(C)(C)Cn1cc(C(=O)NCC#Cc2nn3c(N[C@@H]4CCN(C)C[C@@H]4F)cccc3c2CC(F)(F)F)cn1` [Compound 039, N-[3-(7-{[(3S,4R)-3-fluoro-1-methylpiperidin-4-yl]amino}-3-(2,2,2-trifluoroethyl)pyrazolo[1,5-a]pyridin-2-yl)prop-2-yn-1-yl]-1-(2-methoxy-2-methylpropyl)-1H-pyrazole-4-carboxamide] came in with an SC150 of 10 nM. For the same compound, the half-maximal inhibitory concentration (IC50) was 20.2 µM in assay [1] (setting [2]) and 27.8 µM in assay [1] (setting [3]).
The compound `CN1CC[C@@H](Nc2cccc3c(CC(F)(F)F)c(C#CCNC(=O)c4ncn(C(C)(C)C)c4N)nn23)[C@@H](F)C1` [Compound 283, 5-amino-1-tert-butyl-N [3-(7-{[(3S,4R)-3-fluoro-1-methylpiperidin-4-yl]amino}-3-(2,2,2-trifluoroethyl)pyrazolo[1,5-a]pyridin-2-yl)prop-2-yn-1-yl]-1H-pyrazole-4-carboxamide] gave an SC150 on p53-Y220C mutant protein of 19 nM. The IC50 in the assay with NUGC-3 cells (Homo sapiens, NUGC-3, 168 h) is 1.64 µM; in assay [1] (setting [2]) it was greater than 30 µM; in assay [1] (setting [3]), 18.1 µM.
As to `CC(n1ncc(C(=O)NCC#Cc2nn3c(N[C@@H]4CCN(C)C[C@@H]4F)cccc3c2CC(F)(F)F)c1N)C(F)(F)F` (single isomer, unassigned) [Compound 355B], the SC150 at p53-Y220C mutant protein turned out to be 16 nM. The IC50 in the assay on NUGC-3 cells (NUGC-3 cell proliferation, 7 days, CTG, read-out: IC50) is 0.154 µM; in assay [1] (setting [2]), 12.5 µM; in assay [1] (setting [3]), 13.7 µM.
The compound `CN1CC[C@@H](Nc2cccc3c(CC(F)(F)F)c(C#CCNC(=O)c4cnn(C5(C)CC5)c4N)nn23)[C@@H](F)C1` [Compound 263, 5-amino-N-[3-(7-{[(3S,4R)-3-fluoro-1-methylpiperidin-4-yl]amino}-3-(2,2,2-trifluoroethyl)pyrazolo[1,5-a]pyridin-2-yl)prop-2-yn-1-yl]-1-(1-methylcyclopropyl)-1H-pyrazole-4-carboxamide] registered an SC150 at p53-Y220C mutant protein of 4 nM. Further, the results for the IC50 (with NUGC-3 cells (setting [4]); in assay [1] (setting [2]); in assay [1] (setting [3])) were 0.268 µM, greater than 30 µM and 16.4 µM, respectively.
Taken in the same sequence, the figures for `CN1CC[C@@H](Nc2cccc3c(CC(F)(F)F)c(C#CCNC(=O)c4cc5n(c4)CCOC5)nn23)[C@@H](F)C1` [Compound 281, N-[3-(7-{[(3S,4R)-3-fluoro-1-methylpiperidin-4-yl]amino}-3-(2,2,2-trifluoroethyl)pyrazolo[1,5-a]pyridin-2-yl)prop-2-yn-1-yl]-3,4-dihydro-1H-pyrrolo[2,1-c][1,4]oxazine-7-carboxamide] were 13 nM, 0.413 µM, greater than 30 µM and greater than 30 µM.
In the case of `CCC(C)(C)n1ncc(C(=O)NCC#Cc2nn3c(N[C@@H]4CCN(C)C[C@@H]4F)cccc3c2CC(F)(F)F)c1N` [Compound 351], the SC150 on p53-Y220C mutant protein came out at 7 nM. The IC50 in assay [1] (setting [2]) worked out at 18.1 µM; in assay [1] (setting [3]), 22 µM.
On p53-Y220C mutant protein, `CCn1cc(C(=O)NCC#Cc2nn3c(N[C@@H]4CCN(C)C[C@@H]4F)cccc3c2CC(F)(F)F)cn1` [Compound 004, 1-ethyl-N-[3-(7-{[(3S,4R)-3-fluoro-1-methylpiperidin-4-yl]amino}-3-(2,2,2-trifluoroethyl)pyrazolo[1,5-a]pyridin-2-yl)prop-2-yn-1-yl]-1H-pyrazole-4-carboxamide] came in with an SC150 of 6 nM. The IC50 in assay [1] (setting [2]) and in assay [1] (setting [3]) was greater than 30 µM in each case.
`CN1CC[C@@H](Nc2cccc3c(CC(F)(F)F)c(C#CCNC(=O)c4cnn5c4CCCC5)nn23)[C@@H](F)C1` [Compound 276, N-[3-(7-{[(3S,4R)-3-fluoro-1-methylpiperidin-4-yl]amino}-3-(2,2,2-trifluoroethyl)pyrazolo[1,5-a]pyridin-2-yl)prop-2-yn-1-yl]-4,5,6,7-tetrahydropyrazolo[1,5-a]pyridine-3-carboxamide] gave an SC150 at p53-Y220C mutant protein of 18 nM. The values for the IC50 (in the assay on NUGC-3 cells (setting [4]); in assay [1] (setting [2]); in assay [1] (setting [3])) were 0.856 µM, 17.4 µM and greater than 30 µM, respectively.
At p53-Y220C mutant protein, `CN1CC[C@@H](Nc2cccc3c(CC(F)(F)F)c(C#CCNC(=O)c4cnn5c4CC(C)(C)C5)nn23)[C@@H](F)C1` [Compound 146, N-[3-(7-{[(3S,4R)-3-fluoro-1-methylpiperidin-4-yl]amino}-3-(2,2,2-trifluoroethyl)pyrazolo[1,5-a]pyridin-2-yl)prop-2-yn-1-yl]-5,5-dimethyl-5,6-dihydro-4H-pyrrolo[1,2-b]-1Hpyrazole-3-carboxamide] came in with an SC150 of 13 nM. In addition, the IC50 with NUGC-3 cells (Homo sapiens, NUGC-3, 168 h) amounted to 0.955 µM; in assay [1] (setting [2]), 9.7 µM; in assay [1] (setting [3]), 10.5 µM.
The compound `CCN1CC[C@@H](Nc2cccc3c(CC(F)(F)F)c(C#CCNC(=O)c4cnn(C(C)(C)C)c4N)nn23)[C@@H](F)C1` [Compound 353, 5-amino-1-tert-butyl-N-[3-(7-{[(3S,4R)-1-ethyl-3-fluoropiperidin-4-yl]amino}-3-(2,2,2-trifluoroethyl)pyrazolo[1,5-a]pyridin-2-yl)prop-2-yn-1-yl]-1H-pyrazole-4-carboxamide] showed an SC150 at p53-Y220C mutant protein of 4 nM. In addition, the IC50 with NUGC-3 cells (setting [4]) was 0.152 µM; in assay [1] (setting [2]) it was 22.3 µM; in assay [1] (setting [3]), 26.5 µM.
The compound `CN1CC[C@@H](Nc2cccc3c(CC(F)(F)F)c(C#CCNC(=O)c4ccc(N5CCOCC5)nc4)nn23)[C@@H](F)C1` [Compound 275, N-[3-(7-{[(3S,4R)-3-fluoro-1-methylpiperidin-4-yl]amino}-3-(2,2,2-trifluoroethyl)pyrazolo[1,5-a]pyridin-2-yl)prop-2-yn-1-yl]-(6-morpholin-4-yl)pyridine-3-carboxamide] yielded an SC150 on p53-Y220C mutant protein of 27 nM. Also, the IC50 is 0.901 µM in the assay on NUGC-3 cells (setting [4]), greater than 30 µM in assay [1] (setting [2]) and greater than 30 µM in assay [1] (setting [3]).
At p53-Y220C mutant protein, `COCCn1ccc(C(=O)NCC#Cc2nn3c(N[C@@H]4CCN(C)C[C@@H]4F)cccc3c2CC(F)(F)F)c1` [Compound 279, N-[3-(7-{[(3S,4R)-3-fluoro-1-methylpiperidin-4-yl]amino}-3-(2,2,2-trifluoroethyl)pyrazolo[1,5-a]pyridin-2-yl)prop-2-yn-1-yl]-1-(methoxyethyl)-1H-pyrrole-3-carboxamide] displayed an SC150 of 9 nM. In addition, the figures for the IC50 (in the assay on NUGC-3 cells (setting [4]); in assay [1] (setting [2]); in assay [1] (setting [3])) were 0.672 µM, 18 µM and 24.3 µM, respectively.
As for `CN1CC[C@@H](Nc2cccc3c(CC(F)(F)F)c(C#CCNC(=O)c4cnn5c4COCC5)nn23)[C@@H](F)C1` [Compound 274, N-[3-(7-{[(3S,4R)-3-fluoro-1-methylpiperidin-4-yl]amino}-3-(2,2,2-trifluoroethyl)pyrazolo[1,5-a]pyridin-2-yl)prop-2-yn-1-yl]-6,7-dihydro-4H-pyrazolo[5,1-c][1,4]oxazine-3-carboxamide], on p53-Y220C mutant protein, the SC150 is listed as 12 nM. Also, the IC50 was 0.611 µM in the assay with NUGC-3 cells (setting [4]), greater than 30 µM in assay [1] (setting [2]) and greater than 30 µM in assay [1] (setting [3]).
